Reference: US8481750B2 (Boehringer Ingelheim International GmbH, priority 2009, dated 2013)

target: LFA-1 binding to ICAM-1 (Homo sapiens, UniProt P05107+P20701); experiment: Inhibition of LFA-1 binding to ICAM-1 (LFA-1/Biotin-sICAM-1 AlphaScreen molecular assay); conditions: highest compound concentration 1 μM in 1% DMSO, 37° C., 90 minutes
Text: Assay to Determine Inhibition of LFA-1 Binding to ICAM-1
This assay protocol is designed to study the direct antagonism, by a test compound, of the interaction of ICAM-1 with the Leukointegrin CD18/CD11a (LFA-1).
The LFA-1/Biotin-sICAM-1 molecular assay measures the ability of test compounds to inhibit binding of LFA-1 to Biotinylated-sICAM using AlphaScreen technology (Ref: Wilson, J, Rossi, C P, Carboni, S, Fremaux, C, Perrin, D, Soto, C, Kosco-Vilbois, M, and Scheer, A: A Homogeneous 384-Well High-Throughput Binding Assay for a TNF Receptor Using Alphascreen Technology. J Biomol Screen 2003; 8:522-532) that uses TS2/4(anti-LFA-1)-custom conjugated AlphaLisa acceptor beads and streptavidin-coated donor beads from PerkinElmer. The assay was performed in white OptiPlates-384 in a volume of 60 μL using assay buffer (Dulbecco's PBS containing calcium and magnesium, 2 mM MgCl2, 0.1 mM PMSF, 0.1% BSA, pH 7.1). To each well, Biotin-sICAM was added followed by purified LFA-1 (in buffer of 50 mM triethylamine, 150 mM NaCl, 1% beta octylglucoside, 2 mM MgCl2 neutralized to pH with 1M Tris-HCl, pH 7.5). For compound testing, compound was added in 5 uL to the above in 25 uL. LFA-1 and Biotin-sICAM-1 were used at concentrations that would yield a signal to background ratio of 8-10. The highest concentration of compound was 1 μM in 1% DMSO. Positive controls were wells without compound containing LFA-1, while blanks were wells without both compound and LFA-1. Plates were mixed and incubated at 37° C. for 90 minutes. This was followed by addition of 15 μL/well TS2/4-congugated acceptor beads diluted in PBS containing 0.1% BSA for a final concentration of 10 μg/mL. The plates were mixed and incubated in the dark for 30 minutes at room temperature followed by addition of 15 μL/well streptavidin-coated donor beads diluted in PBS containing 0.1% BSA at a final concentration of 15 μg/mL. The plates were mixed and incubated in the dark for 60 minutes at room temperature and then read on an EnVision Multilabel Reader using AlphaScreen 384-well OptiPlate protocol.

Sequence of LFA-1 binding to ICAM-1 (P20701 26-1170): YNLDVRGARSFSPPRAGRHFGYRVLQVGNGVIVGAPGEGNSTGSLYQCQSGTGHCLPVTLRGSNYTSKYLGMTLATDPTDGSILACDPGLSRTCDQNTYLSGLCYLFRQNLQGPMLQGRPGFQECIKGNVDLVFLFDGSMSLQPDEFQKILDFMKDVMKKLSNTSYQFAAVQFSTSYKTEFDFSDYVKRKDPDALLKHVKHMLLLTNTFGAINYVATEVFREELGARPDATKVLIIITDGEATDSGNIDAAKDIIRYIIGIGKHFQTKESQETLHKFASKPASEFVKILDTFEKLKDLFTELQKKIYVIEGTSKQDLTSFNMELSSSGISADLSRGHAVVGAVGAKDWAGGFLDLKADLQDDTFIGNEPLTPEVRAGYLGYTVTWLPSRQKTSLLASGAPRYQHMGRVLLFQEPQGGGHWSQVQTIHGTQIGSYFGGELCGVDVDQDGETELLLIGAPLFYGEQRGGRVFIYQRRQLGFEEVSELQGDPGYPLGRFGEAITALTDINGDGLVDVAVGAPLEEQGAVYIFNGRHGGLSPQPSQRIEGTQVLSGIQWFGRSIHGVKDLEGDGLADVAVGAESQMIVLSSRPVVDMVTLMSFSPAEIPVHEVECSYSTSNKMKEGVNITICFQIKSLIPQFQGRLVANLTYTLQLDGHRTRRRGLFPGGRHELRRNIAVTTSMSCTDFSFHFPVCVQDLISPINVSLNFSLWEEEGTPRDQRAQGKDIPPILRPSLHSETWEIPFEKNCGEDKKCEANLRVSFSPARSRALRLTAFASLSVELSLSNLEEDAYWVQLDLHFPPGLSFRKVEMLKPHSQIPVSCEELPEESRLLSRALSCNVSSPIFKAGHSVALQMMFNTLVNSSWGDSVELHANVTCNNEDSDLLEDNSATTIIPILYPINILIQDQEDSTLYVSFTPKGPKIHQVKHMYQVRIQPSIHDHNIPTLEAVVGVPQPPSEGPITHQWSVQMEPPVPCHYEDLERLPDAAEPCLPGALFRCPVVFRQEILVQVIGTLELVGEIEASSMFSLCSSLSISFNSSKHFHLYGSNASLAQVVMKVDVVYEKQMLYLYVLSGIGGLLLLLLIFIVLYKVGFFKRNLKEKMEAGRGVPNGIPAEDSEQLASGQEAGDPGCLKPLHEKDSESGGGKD
Sequence of LFA-1 binding to ICAM-1 (P05107 23-769): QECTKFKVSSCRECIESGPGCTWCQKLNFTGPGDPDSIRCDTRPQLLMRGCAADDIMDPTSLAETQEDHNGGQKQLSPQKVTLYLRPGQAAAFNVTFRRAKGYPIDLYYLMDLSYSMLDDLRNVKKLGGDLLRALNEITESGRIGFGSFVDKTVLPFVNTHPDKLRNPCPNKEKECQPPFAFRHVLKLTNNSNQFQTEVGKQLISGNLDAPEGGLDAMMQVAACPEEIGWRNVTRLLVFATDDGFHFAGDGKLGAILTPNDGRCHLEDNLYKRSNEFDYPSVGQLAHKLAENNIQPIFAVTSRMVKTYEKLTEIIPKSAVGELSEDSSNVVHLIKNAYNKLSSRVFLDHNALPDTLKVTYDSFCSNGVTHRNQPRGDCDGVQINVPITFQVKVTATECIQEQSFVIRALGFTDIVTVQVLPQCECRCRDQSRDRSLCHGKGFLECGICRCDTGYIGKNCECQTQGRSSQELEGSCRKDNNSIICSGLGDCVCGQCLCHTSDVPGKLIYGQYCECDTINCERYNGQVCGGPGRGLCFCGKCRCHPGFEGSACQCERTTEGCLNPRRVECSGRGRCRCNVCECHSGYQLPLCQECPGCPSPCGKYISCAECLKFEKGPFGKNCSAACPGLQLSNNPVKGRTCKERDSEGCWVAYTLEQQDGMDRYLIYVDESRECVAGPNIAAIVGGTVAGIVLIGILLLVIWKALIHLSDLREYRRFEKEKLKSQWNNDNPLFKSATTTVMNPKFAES

Row | IC50 [nM] | Compound
1 | 0.37 | CC(C)(O)CNC(=O)c1ccc(C2(NC(=O)C3(NC(=O)c4cnc5n4[C@](C)(Cc4ccc(C#N)cc4)C(=O)N5c4cc(Cl)cc(Cl)c4)CC3)CC2)nc1 [compound 117]
2 | 0.56 | C[C@H](CO)NC(=O)c1ccnc(C2(NC(=O)C3(NC(=O)c4cnc5n4[C@](C)(Cc4ccc(C#N)cc4)C(=O)N5c4cc(Cl)cc(Cl)c4)CC3)CC2)c1 [compound 49]
3 | 0.28 | C[C@@]1(Cc2ccc(C#N)cc2)C(=O)N(c2cc(Cl)cc(Cl)c2)c2ncc(C(=O)NC3(C(=O)NC4(c5ccc(C(=O)NCCC(N)=O)cn5)CC4)CC3)n21 [compound 112]
4 | 0.74 | C[C@@]1(Cc2ccc(C#N)cc2)C(=O)N(c2cc(Cl)cc(Cl)c2)c2ncc(C(=O)NC3(C(=O)NC4(c5cc(C(=O)NCC(O)CO)ccn5)CC4)CC3)n21 (stereo partly drawn) [compound 96]
5 | 1.1 | CN(C)CCNC(=O)c1ccnc(C2(NC(=O)C3(NC(=O)c4cnc5n4[C@](C)(Cc4ccc(C#N)cc4)C(=O)N5c4cc(Cl)cc(Cl)c4)CC3)CC2)c1 [compound 62]
6 | 0.37 | C[C@@H](NC(=O)c1ccc(C2(NC(=O)C3(NC(=O)c4cnc5n4[C@](C)(Cc4ccc(C#N)cc4)C(=O)N5c4cc(Cl)cc(Cl)c4)CC3)CC2)nc1)C(N)=O [compound 102]
7 | 0.55 | C[C@@]1(Cc2ccc(C#N)cc2)C(=O)N(c2cc(Cl)cc(Cl)c2)c2ncc(C(=O)NC3(C(=O)NC4(c5cc(C(=O)NC(CO)CO)ccn5)CC4)CC3)n21 [compound 129]
8 | 1 | CN(CCO)C(=O)c1cccc(C2(NC(=O)C3(NC(=O)c4cnc5n4[C@](C)(Cc4ccc(C#N)cc4)C(=O)N5c4cc(Cl)cc(Cl)c4)CC3)CC2)n1 [compound 20]
9 | 0.81 | C[C@@H](CO)NC(=O)c1ccc(C2(NC(=O)C3(NC(=O)c4cnc5n4[C@](C)(Cc4ccc(C#N)cc4)C(=O)N5c4cc(Cl)cc(Cl)c4)CC3)CC2)nc1 [compound 91]
10 | 2.4 | C[C@@]1(Cc2ccc(C#N)cc2)C(=O)N(c2cc(Cl)cc(Cl)c2)c2ncc(C(=O)NC3(C(=O)NC4(c5cccc(C(=O)N6CC[C@@H](O)C6)n5)CC4)CC3)n21 [compound 48]
11 | 0.6 | C[C@@]1(Cc2ccc(C#N)cc2)C(=O)N(c2cc(Cl)cc(Cl)c2)c2ncc(C(=O)NC3(C(=O)NC4(c5ccc(C(=O)N6CCNCC6)cn5)CC4)CC3)n21 [compound 56]
12 | 0.91 | C[C@@]1(Cc2ccc(C#N)cc2)C(=O)N(c2cc(Cl)cc(Cl)c2)c2ncc(C(=O)NC3(C(=O)NC4(c5cccc(C(=O)NCCO)n5)CC4)CC3)n21 [compound 30]
13 | 0.42 | C[C@@]1(Cc2ccc(C#N)cc2)C(=O)N(c2cc(Cl)cc(Cl)c2)c2ncc(C(=O)NC3(C(=O)NC4(c5cc(C(=O)NCCn6ccnc6)ccn5)CC4)CC3)n21 [compound 159]
14 | 0.37 | CC(=O)NCCNC(=O)c1ccc(C2(NC(=O)C3(NC(=O)c4cnc5n4[C@](C)(Cc4ccc(C#N)cc4)C(=O)N5c4cc(Cl)cc(Cl)c4)CC3)CC2)nc1 [compound 121]
15 | 0.7 | C[C@@]1(Cc2ccc(C#N)cc2)C(=O)N(c2cc(Cl)cc(Cl)c2)c2ncc(C(=O)NC3(C(=O)NC4(c5cc(C(=O)N6CCOCC6)ccn5)CC4)CC3)n21 [compound 58]
16 | 2.3 | C[C@@]1(Cc2ccc(C#N)cc2)C(=O)N(c2cc(Cl)cc(Cl)c2)c2ncc(C(=O)NC3(C(=O)NC4(c5cccc(C(=O)NCc6cccnc6)n5)CC4)CC3)n21 [compound 162]
17 | 2.2 | COCCNC(=O)c1cccc(C2(NC(=O)C3(NC(=O)c4cnc5n4[C@](C)(Cc4ccc(C#N)cc4)C(=O)N5c4cc(Cl)cc(Cl)c4)CC3)CC2)n1 [compound 75]
18 | 0.33 | C[C@@]1(Cc2ccc(C#N)cc2)C(=O)N(c2cc(Cl)cc(Cl)c2)c2ncc(C(=O)NC3(C(=O)NC4(c5cc(C(=O)N6CCC[C@@H]6C(N)=O)ccn5)CC4)CC3)n21 [compound 115]
19 | 0.72 | C[C@@]1(Cc2ccc(C#N)cc2)C(=O)N(c2cc(Cl)cc(Cl)c2)c2ncc(C(=O)NC3(C(=O)NC4(c5ccc(C(=O)N6CCCC6)cn5)CC4)CC3)n21 [compound 119]
20 | 0.45 | C[C@@]1(Cc2ccc(C#N)cc2)C(=O)N(c2cc(Cl)cc(Cl)c2)c2ncc(C(=O)NC3(C(=O)NC4(c5cc(C(=O)NCc6cccnc6)ccn5)CC4)CC3)n21 [compound 72]
21 | 0.28 | C[C@@]1(Cc2ccc(C#N)cc2)C(=O)N(c2cc(Cl)cc(Cl)c2)c2ncc(C(=O)NC3(C(=O)NC4(c5cccc(C(=O)N6CCCCC6CO)n5)CC4)CC3)n21 (stereo partly drawn) [compound 125]

Row | IC50 [nM] | Compound
22 | 0.58 | C[C@@]1(Cc2ccc(C#N)cc2)C(=O)N(c2cc(Cl)cc(Cl)c2)c2ncc(C(=O)NC3(C(=O)NC4(c5cccc(C(=O)N6CC(O)C6)n5)CC4)CC3)n21 [compound 51]
23 | 0.53 | C[C@@]1(Cc2ccc(C#N)cc2)C(=O)N(c2cc(Cl)cc(Cl)c2)c2ncc(C(=O)NC3(C(=O)NC4(c5ccc(C(=O)NCCc6cccnc6)cn5)CC4)CC3)n21 [compound 84]
24 | 0.44 | C[C@@]1(Cc2ccc(C#N)cc2)C(=O)N(c2cc(Cl)cc(Cl)c2)c2ncc(C(=O)NC3(C(=O)NC4(c5ccc(C(=O)NCC6CC6)cn5)CC4)CC3)n21 [compound 13]
25 | 0.81 | CC(CO)NC(=O)c1cccc(C2(NC(=O)C3(NC(=O)c4cnc5n4[C@](C)(Cc4ccc(C#N)cc4)C(=O)N5c4cc(Cl)cc(Cl)c4)CC3)CC2)n1 (stereo partly drawn) [compound 150]
26 | 0.84 | C[C@@]1(Cc2ccc(C#N)cc2)C(=O)N(c2cc(Cl)cc(Cl)c2)c2ncc(C(=O)NC3(C(=O)NC4(c5cc(C(=O)NCC(N)=O)ccn5)CC4)CC3)n21 [compound 172]
27 | 1.4 | CN(C)C1CCN(C(=O)c2ccnc(C3(NC(=O)C4(NC(=O)c5cnc6n5[C@](C)(Cc5ccc(C#N)cc5)C(=O)N6c5cc(Cl)cc(Cl)c5)CC4)CC3)c2)C1 (stereo partly drawn) [Compound 1]
28 | 0.81 | C[C@@]1(Cc2ccc(C#N)cc2)C(=O)N(c2cc(Cl)cc(Cl)c2)c2ncc(C(=O)NC3(C(=O)NC4(c5ccc(C(=O)NCc6cccnc6)cn5)CC4)CC3)n21 [compound 21]
29 | 0.68 | C[C@@]1(Cc2ccc(C#N)cc2)C(=O)N(c2cc(Cl)cc(Cl)c2)c2ncc(C(=O)NC3(C(=O)NC4(c5ccc(C(=O)N6CCCCC6CO)cn5)CC4)CC3)n21 (stereo partly drawn) [compound 137]
30 | 3.4 | C[C@@]1(Cc2ccc(C#N)cc2)C(=O)N(c2cc(Cl)cc(Cl)c2)c2ncc(C(=O)NC3(C(=O)NC4(c5cccc(C(=O)N6CCCC6)n5)CC4)CC3)n21 [compound 11]
31 | 2.4 | C[C@@H](NC(=O)c1ccnc(C2(NC(=O)C3(NC(=O)c4cnc5n4[C@](C)(Cc4ccc(C#N)cc4)C(=O)N5c4cc(Cl)cc(Cl)c4)CC3)CC2)c1)c1ccccc1 [compound 53]
32 | 3.9 | CC(NC(=O)c1cccc(C2(NC(=O)C3(NC(=O)c4cnc5n4[C@](C)(Cc4ccc(C#N)cc4)C(=O)N5c4cc(Cl)cc(Cl)c4)CC3)CC2)n1)c1cccnc1 (stereo partly drawn) [compound 47]
33 | 1.4 | CC(O)CNC(=O)c1cccc(C2(NC(=O)C3(NC(=O)c4cnc5n4[C@](C)(Cc4ccc(C#N)cc4)C(=O)N5c4cc(Cl)cc(Cl)c4)CC3)CC2)n1 (stereo partly drawn) [compound 74]
34 | 0.52 | CN1CCN(C(=O)c2cccc(C3(NC(=O)C4(NC(=O)c5cnc6n5[C@](C)(Cc5ccc(C#N)cc5)C(=O)N6c5cc(Cl)cc(Cl)c5)CC4)CC3)n2)CC1 [compound 157]
35 | 1.8 | C[C@@]1(Cc2ccc(C#N)cc2)C(=O)N(c2cc(Cl)cc(Cl)c2)c2ncc(C(=O)NC3(C(=O)NC4(c5cccc(C(=O)N6CCC(CO)CC6)n5)CC4)CC3)n21 [compound 18]
36 | 0.45 | C[C@@]1(Cc2ccc(C#N)cc2)C(=O)N(c2cc(Cl)cc(Cl)c2)c2ncc(C(=O)NC3(C(=O)NC4(c5cc(C(=O)NCC(=O)O)ccn5)CC4)CC3)n21 [compound 131]
37 | 0.29 | CC(NC(=O)c1ccnc(C2(NC(=O)C3(NC(=O)c4cnc5n4[C@](C)(Cc4ccc(C#N)cc4)C(=O)N5c4cc(Cl)cc(Cl)c4)CC3)CC2)c1)c1ccccn1 (stereo partly drawn) [compound 149]
38 | 3 | C[C@@H](NC(=O)c1ccnc(C2(NC(=O)C3(NC(=O)c4cnc5n4[C@](C)(Cc4ccc(C#N)cc4)C(=O)N5c4cc(Cl)cc(Cl)c4)CC3)CC2)c1)C(N)=O [compound 166]
39 | 1.3 | CC(NC(=O)c1cccc(C2(NC(=O)C3(NC(=O)c4cnc5n4[C@](C)(Cc4ccc(C#N)cc4)C(=O)N5c4cc(Cl)cc(Cl)c4)CC3)CC2)n1)c1ccncc1 (stereo partly drawn) [compound 151]
40 | 0.92 | C[C@@]1(Cc2ccc(C#N)cc2)C(=O)N(c2cc(Cl)cc(Cl)c2)c2ncc(C(=O)NC3(C(=O)NC4(c5cc(C(=O)NCCO)ccn5)CC4)CC3)n21 [compound 4]
41 | 0.97 | C[C@@]1(Cc2ccc(C#N)cc2)C(=O)N(c2cc(Cl)cc(Cl)c2)c2ncc(C(=O)NC3(C(=O)NC4(c5ccc(C(=O)NCc6ccncc6)cn5)CC4)CC3)n21 [compound 50]
42 | 0.5 | CC(=O)NCCNC(=O)c1cccc(C2(NC(=O)C3(NC(=O)c4cnc5n4[C@](C)(Cc4ccc(C#N)cc4)C(=O)N5c4cc(Cl)cc(Cl)c4)CC3)CC2)n1 [compound 68]
